Data taken from US10000775B2, “Biosynthesis of 1-undecene and related terminal olefins” (The Regents of the University of California, priority 2013, dated 2018).

How the values were obtained:
Type in all cases: biochemical, Pseudomonas fluorescens Pf-5
PFL_4321 [1] = assay: In vitro enzymatic assays of PFL_4321 with fatty acid substrates or analogs; conditions: purified PFL_4321, Fe2+, ascorbic acid
Procedure: A typical condition is as follows: 1 mL of reaction mixture contains 50 mM MES buffer (pH 6.2), 300 mM NaCl, 100 μM (NH4)2Fe(SO4)2, 1 mM ascorbic acid, 100 μM fatty acid substrate or analogs, and 10 μM enzyme. The reaction was performed in a sealed headspace vial at 30° C., initiated by adding lauric acid and quenched by injecting equal volume of 5 M NaOH. 1-Undecene production was analyzed and quantified by using the SPME-GCMS method. To determine the kinetic parameters of PFL_4321 on lauric acid, initial velocities at 1, 10, 20, 50, 100, and 150 μM of lauric acid were measured (25 mM lauric acid solution was prepared by adding 0.5% tergitol and heating at 65° C. for 10 min). The reactions were quenched at 2, 4, 6, 8, and 10 seconds, and the acquired turnover rates were fit to the Michaelis-Menten equation using GraphPad Prism to obtain kcat and Km. The kcat and Km of myristic acid and capric acid were determined similarly.
To acquire the kinetic parameters of PFL_4321 on 11-aminoundecanoic acid and 12-aminododecanoic acid, initial velocities at 25, 50, 100, 150, 200, 250, 500, and 700 μM were measured. 50 μl of aliquots of the reaction were quenched at 1, 1.5, 2, 2.5, 3, 3.5, 4, 4.5, 5, 5.5, and 6 minutes by adding 100 μl of acetonitrile. Denatured enzymes were removed by centrifugation at 15,000 g for 20 min. LC-HRMS analysis was carried out on an Agilent Technologies 6520 Accurate-Mass Q-TOF LC-MS instrument equipped with an Agilent Eclipse Plus C18 column (3.5 μm, 4.6×100 mm). 10 μL of the solution was injected into LC-HRMS and a linear gradient of 55 to 95% CH3CN (vol/vol) over 15 min in H2O with 0.1% (vol/vol) formic acid at a flow rate of 0.5 mL/min was used for analysis. The exact masses of aminoundec-1-ene and aminodec-1-ene were extracted, and the peaks were integrated and compared with the standard compounds.

PFL_4321 [2] = assay: Test of H2O2 as a possible substrate
Procedure: To examine whether the H2O2/Fe^3+ or the H2O2/Fe^2+ system provides for the PFL_4321 activity, anaerobic enzymatic reactions in the glove box were performed. The deoxygenated reaction mixture contained 50 mM MES buffer (pH 6.2), 100 mM NaCl, 100 μM PFL_4321, 100 μM either FeCl3 or (NH4)2Fe(SO4)2, 1 mM LA, and various amount of H2O2 (100, 200, 500, 1000, 5000 μM), and 1-undecene production was analyzed. The aerobic reaction was carried out under similar conditions except that the O2 was provided by mixing with the equal volume of O2-saturated buffer solution (50 mM MES, pH 6.2, 100 mM NaCl).

PFL_4321 [3] = assay: Survey of reductive cofactors/cosubstrates under iron-limited conditions; conditions: iron-limiting conditions; 1 mM reductive cofactor
Procedure: FIG. 7 illustrates a comparison of 1-undecene production by using various reductive cofactors/cosubstrates under iron-limited conditions. 2.5 mL of reaction mixture contains 100 μM MES (pH 6.1), 300 mM NaCl, 50 μM lauric acid, 5 μM PFL_4321, 0.1 μM (NH4)2Fe(SO4)2, and 1 mM reductive cofactor. When needed, 40 μM FAD, FMN, ferredoxin, or phenazine, and 20 μM flavin reductase (FL-R) or ferredoxin reductase (FR) were added.
A survey was conducted to identify the possible reductive cofactor/cosubstrates according to the well-studied oxygen-activating iron-dependent oxygenases, including but not limited to α-ketoglutarate, ascorbic acid, glutathione, cysteine, nicotinamides, flavins, ferredoxin (F. H. Vaillancourt et al., Nature 436, 1191, 2005; W. C. Chang et al., Nature 496, 114, 2013; L. M. Mirica et al., J Am Chem Soc 130, 8122, 2008; P. C. Bruijnincx et al., Chem Soc Rev 37, 2716, 2008). […] Accordingly, ascorbic acid was included in all of the following in vitro assays and the kinetic parameters of PFL_4321 toward lauric acid (C12) were determined (FIG. 8).

PFL_4321 [4] = assay: Reductive co-substrate screening, with chlorite dismutase coupled assay; conditions: coupled with chlorite dismutase reaction to generate O2 in situ
Procedure: FIG. 28 illustrates a comparison of 1-undecene production by using various reductive cofactors/cosubstrates in the presence of excessive O2 provided by the coupled […] dismutase reaction. The reaction mixture contains 100 μM MES (pH 6.1), 300 mM NaCl, 1 mM lauric acid (dissolved in 0.5% tergitol), 100 μM PFL_4321, 100 μM (NH4)2Fe(SO4)2, 2 μM chlorite dismutase, 4 mM sodium chlorite, and 2 mM reductive cofactor/co-substrates. When needed, 40 μM FAD, FMN, ferredoxin, PQQ, or PMS, and 20 μM flavin reductase (FL-R) or ferredoxin reductase (FR) were added. 1-undecene production was analyzed after reacting for 100 min. Error bars represent standard deviations from at least three independently performed experiments.
To survey the possible reductive co-substrates, the oxygenated buffer solution (50 mM MES, pH 6.2, 100 mM NaCl) was mixed with an equal volume of an O2-free solution containing 50 mM MES buffer (pH 6.2), 100 mM NaCl, 200 μM PFL_4321, 200 μM (NH4)2Fe(SO4)2, 2 mM LA, and 4 mM of the reductive co-substrate, so that the final mixture contained 50 mM MES buffer (pH 6.2), 100 mM NaCl, 100 μM PFL_4321, 100 μM (NH4)2Fe(SO4)2, 1 mM LA, and 2 mM of the reductive co-substrate. The reaction was carried out in a sealed GC vial due to the semi-volatility of 1-undecene. […]

PFL_4321 [5] = assay: Metal ion requirement of PFL_4321 in vitro (1-undecene production from lauric acid)
Procedure: Additional in vitro assays were performed with PFL_4321 using lauric acid, its esters, or thioesters as potential substrates. […] PFL_4321 was incubated with lauric acid in the presence of various metal ions, including Fe^2+, Fe^3+, Mg^2+, Ca^2+, Mn^2+, Co^2+, Ni^2+, Cu^2+, and Zn^2+.

Molecule | conversion of the substrate by PFL_4321 (to the corresponding minus-1-carbon 1-alkene or other product) (PFL_4321 [1]) | also measured
CCCCCCCCCC(O)CC(=O)O (stereo not drawn) [β-hydroxydodecanoic acid] | no activity | –
CCCCCCCCCC=CC(=O)O [2,3-dodecenoic acid] | no activity | –
[2H]C([2H])(CCCCCCCCCC)C(=O)O [[α,α-D2]lauric acid] | led to the production of 1-undecene retaining both deuterium atoms | –
CCCCCCCCC(C)CCC(=O)O (centres unmarked) [4-methyldodecanoic acid] | converted to their corresponding terminal olefins | –
CCCCCCCCCCCCCC(=O)O [myristic acid] | converted | –
NCCCCCCCCCCC(=O)O [11-aminoundecanoic acid] | catalyzed the conversion | –
[D23]lauric acid | led to the production of [D22]1-undecene | –
O=C(O)CCCCCCCCCCBr [11-bromoundecanoic acid] | catalyzed the conversion | –
CCCCCCCCCCC(O)C(=O)O (stereo not drawn) [α-hydroxydodecanoic acid] | transformed | –
O=S(O)S(=O)O [dithionite] | – | effect on 1-undecene production by PFL_4321 (PFL_4321 [2]; added to reduce O2 to H2O2 in situ): inhibited
N[C@@H](CS)C(=O)O [cysteine] | – | effect on the yield of 1-undecene (PFL_4321 [3]): modest effect
O=C1O[C@H]([C@@H](O)CO)C(O)=C1O [ascorbic acid] | – | multiple turnovers for PFL_4321 in vitro (PFL_4321 [4]): allowed for multiple turnovers; rate of 1-undecene production with multiple turnovers (PFL_4321 [4]): four; effect on the yield of 1-undecene (PFL_4321 [3]): significantly increased
CCCCCCCCCC(=O)O [capric acid] | converted | –
[Fe+2] [Fe^2+] | – | 1-undecene production by PFL_4321 with lauric acid in the presence of the metal ion (PFL_4321 [5]; PFL_4321 incubated with lauric acid and metal ion): elicited the 1-undecene production
OO [H2O2] | – | 1-undecene formation in the presence of H2O2 (PFL_4321 [2]; anaerobic reactions with either PFL_4321-Fe(III) or PFL_4321-Fe(II)): no 1-undecene was formed; 1-undecene formation in the presence of H2O2 (PFL_4321 [2]; both H2O2 and O2, PFL_4321-Fe(III)): no 1-undecene was formed; effect of H2O2 on 1-undecene formation (PFL_4321 [2]; reaction containing O2 and PFL_4321-Fe(II)): did not promote
O=C(O)CCCCCCCCCCCBr [12-bromododecanoic acid] | catalyzed the conversion | –
CC(C)CCCCCCCCCC(=O)O [11-methyldodecanoic acid] | converted to their corresponding terminal olefins | –
O=C(O)CN(CCN(CC(=O)O)CC(=O)O)CC(=O)O [EDTA, ethylenediaminetetraacetic acid] | – | effect on 1-undecene formation by PFL_4321, lauric acid and E. coli crude extract (PFL_4321 [5]; addition of chelating agent): quenched
NCCCCCCCCCCCC(=O)O [12-aminododecanoic acid] | catalyzed the conversion | –
CCCCCCCCCCCCCCCC(=O)O [palmitic acid] | failed to act | –
C#CCCCCCCCCC(=O)O [10-undecynoic acid] | catalyzed the conversion | –
CCCCCCCC(=O)O [caprylic acid] | failed to act | –
